The subject of assay [1] is rat insulinoma cells. Particulars: cited from earlier work.
Assay [2] has as its system monocyte migration. As to conditions: Chen 2001; cited from earlier work.
For assay [3], the target named is T1, p38 MAPK (Homo sapiens, UniProt Q16539).
T1 construct: made in house; host or cells: cells (e.g., HeLa) transfected with kinase DNA, stimulated, kinase immunoprecipitated from lysate
The assay can be described thus: phosphorylation assay of p38 MAPK activity (see Kumar). The assay is classed as biochemical. Particulars: assay similar to the phosphorylation assay (Kumar); read-out: p38 MAPK activity, relative IC50 value. As to the method: After immunoprecipitation of cell lysates, equal aliquots of immune complexes of the kinases are pre-incubated for an adequate time with a specific concentration of the potential inhibitor followed by addition of kinase substrate buffer mix containing labeled ATP and GST-ATF2 or MBP. […] Phosphorylated substrate is resolved through SDS-PAGE and visualized and quantitated in a phosphorimager. […] Res. Commun.

A value given as a limit tells only on which side of the number the result lay.

The values below come from US20040171659A1, “Methods for treating diabetes” (priority 2002, published 2004).

Usually IC50 stands for the point on the concentration scale where inhibition reaches its midpoint.

T1 sequence (Q16539 whole entry): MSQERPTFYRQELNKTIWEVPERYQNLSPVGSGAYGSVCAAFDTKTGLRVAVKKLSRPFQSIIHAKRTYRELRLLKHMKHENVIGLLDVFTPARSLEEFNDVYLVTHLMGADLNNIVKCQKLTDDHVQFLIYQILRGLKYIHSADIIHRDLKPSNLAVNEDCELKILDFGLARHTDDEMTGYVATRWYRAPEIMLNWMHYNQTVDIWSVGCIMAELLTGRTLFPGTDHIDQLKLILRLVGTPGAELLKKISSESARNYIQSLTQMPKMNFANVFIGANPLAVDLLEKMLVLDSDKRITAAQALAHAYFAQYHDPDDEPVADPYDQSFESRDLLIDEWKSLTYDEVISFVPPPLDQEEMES

In the case of `C[S+]([O-])c1ccc(-c2nc(-c3ccncc3)c(-c3ccc(F)cc3)[nH]2)cc1` (stereo not drawn) [SB203580], the “p38-dependent enhancement of cytokines expression by hsp70” value in assay [1] was “blocks this activity”. Besides, in assay [2], the Monocyte migration entry was “blockade”.

Regarding `COc1cc2c(cc1C(=O)N1CC(C)N(Cc3ccc(F)cc3)CC1C)c(C(=O)C(=O)N(C)C)cn2C` (stereo not drawn) [compound 15], the IC50 in assay [3] was < 5 nM.
